Measurements reported in patent publication US20240261301A1, “COMPOSITION COMPRISING INOTODIOL FOR PREVENTION OR TREATMENT OF MUSCULAR DISEASE” (ANIMUSCURE INC., priority 2021, published 2024).

Tests used:
[1] = test system: mouse model in which myoatrophy is induced by DEX; experiment: Myotube atrophy in myoatrophy-induced (DEX) mouse model; type: in vivo; conditions: DEX (dexamethasone 20 mg/kg) model
Experimental: Experimental animals were grouped into 10 animals having a similar body weight, and dexamethasone was administered at a dose of 20 mg/kg to one group to induce […].
For the myoatrophy mouse model of Example 3, the effects of alleviating and recovering myotube atrophy were determined when inotodiol was administered.

[2] = test system: mouse model in which muscle damage is induced by CTX; conditions: CTX mice
Experimental: Ten 5-month-old C57BL/6 male mice were used as experimental animals.
However, each of the weights of the hindlimb muscle tissues, such as the tibialis anterior muscle (TA), extensor digitorum longus muscle (EDL), soleus muscle (Sol), and gastrocnemius muscle (Gas), of the experimental animals was measured.
Hematoxylin & eosin staining (H&E staining) was performed using the TA muscle isolated from the tissue of each of the experimental animals. Frozen sections fixed with 4% paraformaldehyde were stained with hematoxylin and stained with eosin for contrast staining, mounted, and observed under an optical microscope.
The relative mRNA expression levels were compared for each muscle type of Myh7 (MHCI), Myh2 (MHCIIa), Myh4 (MHCIIb), and Myh1 (MHCIIx).

[3] = test system: muscle fibrosis; experiment: Muscle fibrosis in CTX muscle damage mouse model; type: in vivo; conditions: then inotodiol
[4] = test system: high-fat diet mice; experiment: Exercise capacity in high-fat diet mouse model (treadmill, grip test); type: in vivo; conditions: high-fat diet-fed mice
Experimental: When inotodiol was administered to high-fat diet mice, the effects on muscle strength and exercise performance ability were determined. After inotodiol was administered to a high-fat diet-fed mouse model, the exercise duration and movement distance were measured through a treadmill experiment. […] As a result of the grip test, it was also confirmed that the high-fat diet mouse model had lower muscle strength than the mean muscle strength.

[5] = test system: ATPSA, MTCO1, and NDUF88; experiment: Mitochondrial activity markers (T-OxPHOS immunoblotting) in C2C12 myoblasts; type: cell-based, mouse; conditions: inotodiol at each concentration
Experimental: (§1) Cells were seeded into the cell culture medium (GM), and cultured for 24 hours. Thereafter, the differentiation medium (DM) was treated with DMSO and inotodiol (0.1, 0.5, 1.0, and 10 μM) at different concentrations, and differentiation was induced for 2 to 3 days.
To induce the differentiation of C2C12 myoblasts in the same manner as in Example 1 and check mitochondrial activity, the expression characteristics of a T-OxPHOS antibody mixed with ATPSA, MTCO1, and NDUF88 were confirmed through immunoblotting. For each of the proteins included in the T-OxPHOS antibody, ATPSA is a constituent protein of ATP synthase that contributes to the ATP synthesis in mitochondria, MTCO1 is associated with the oxidase activity of cytochrome-c, which is a component of the electron transport system in the inner membrane of mitochondria, and NDUF 88 encodes a subunit of NADH:ubiquinone oxidoreductase (Complex 1), which is the first enzyme complex in the mitochondrial electron transport system.

[6] = test system: C2C12 cells; experiment: Myoblast differentiation of C2C12 cells (MHC immunostaining and immunoblot); type: cell-based, mouse
Experimental: The C2C12 cells were cultured in a general cell culture medium and a differentiation medium, respectively. DMEM supplemented with 15% fetal bovine serum was used as the normal cell culture medium (i.e., a growth medium (GM)), and DMEM supplemented with 2% horse serum was used as the differentiation medium (DM).
The C2C12 cells whose differentiation was induced in Example 1 were washed with 1× PBS, and then fixed with 3.7% paraformaldehyde at room temperature. Thereafter, a permeabilization buffer was added thereto, and reacted at room temperature. Unspecific antibody binding was inhibited by reacting with PBST (a blocking buffer) containing 3% BSA and PBS containing 0.1% Tween 20. A primary antibody against a myosin heavy chain (MHC) was diluted 1:500 in a blocking buffer, added, and reacted at room temperature. A secondary antibody diluted 1:5000 in a blocking buffer was added, and reacted at room temperature.
The C2C12 cells whose differentiation was induced in Example 1 were collected, lysed by adding a lysis buffer (20 mM Tris-HCl, pH 8.0, 150 mM NaCl, 1% Triton X, a proteinase inhibitor), and then the cell lysis sample was quantified. Thereafter, the same amount of protein was subjected to SDS-PAGE electrophoresis, and transferred to a PVDF membrane. […]

[7] = test system: muscle stem cells; experiment: Muscle stem cell proliferation (BrdU analysis) after CTX muscle damage; type: in vivo, mouse
Experimental: To induce muscle damage, CTX was injected into the mice to which inotodiol was administered once a day for 7 days. Then, it was determined through BrdU analysis whether or not the proliferation of muscle stem cells was enhanced (FIG. 10).

[8] = test system: PGC-1α; experiment: PGC-1α mRNA expression by qRT-PCR in C2C12 cells; type: cell-based, mouse; conditions: differentiating C2C12, qRT-PCR, normalized to 18s rRNA, vs control
Experimental: as §1
The C2C12 cells whose differentiation was induced in Example 1 were lysed using an Easy-spin Total RNA Extraction kit, and chloroform was added thereto. Then, the C2C12 cells were centrifuged. After the supernatant was separated, the same volume of isopropanol was added and bound to the cells. After centrifugation, the cells were washed with 70% EtOH mixed with DEPC water, and the concentration of RNA was quantified by adding 20 to 50 μL of a DEPC solution. RNA was reverse-transcribed using a PrimeScript cDNA synthesis kit to synthesize cDNA. Then, the gene expression was analyzed by qRT-PCR in a real-time PCR system using SYBR Premix EX Taq. Fold changes in gene expression were normalized against the expression of ribosomal gene 18s rRNA.

[9] = test system: normal mice; experiment: Long-term (2 months) inotodiol administration to normal mice; type: in vivo, mouse
Experimental: For normal mice in which the muscle damage or muscle atrophy was not induced, an experiment was conducted to determine whether there was an effect of increasing muscle mass and muscle strength when inotodiol was administered. For the mice to which inotodiol was administered for 2 months, an experiment was conducted to measure a change in muscle mass and muscle strength of hindlimb muscles after the administration of inotodiol (a grip test).

[10] = test system: PGC-1α promoter; experiment: PGC-1α reporter (luciferase) assay; type: cell-based, mouse
Experimental: Immediately after cells were seeded at a density of 1×10^4 cells/well in a 96-well culture plate, the cells were transfected by treating the cells with PGC-1α (DNA) and a plasmid at a ratio of [150 ng/10 μL]+[0.3 μL/10 μL] per well. […] After 24 hours of drug treatment, the cells were lysed in 30 μL of a passive lysis buffer (Promega) per well, and the dissolved cell solution was transferred to a plate for luminometer reading. Then, an equal amount of luciferin, which is a substrate of luciferase, was subjected to an enzymatic reaction to determine the degree of luminescence. The measured values were standardized for each well and plate, and expressed as a relative ratio using the measured values in the wells treated with DMSO, which is a solvent of the compound, as the control. The expression level of luciferase in the PGC-1α reporter cell line depends on the stimulation received by a PGC-1α promoter. That is, if the compound is a PGC-1α expression inducer, it stimulates the PGC-1a promoter to increase the expression of luciferase, and if the compound is a PGC-1α expression inhibitor, luciferase expression decreases.

[11] = 300 μg/kg oral, 21 days after CTX
[12] = inotodiol once a day for 7 days, then CTX
[13] = 2 months administration, vs control

CC(C)=CC[C@@H](O)[C@@H](C)[C@H]1CC[C@@]2(C)C3=C(CC[C@]12C)[C@@]1(C)CC[C@H](O)C(C)(C)C1CC3 (some centres unmarked) [inotodiol]
cross-sectional area of myotubes [1]: restored to the same level as that of the normal group | size of muscles and muscle fibers [1]: increased | increase in muscle mass, extensor digitorum longus muscle (EDL), vs control [2, 11]: 18.9% | increase in muscle mass, gastrocnemius muscle (Gas), vs control [2, 11]: 9.5% | increase in muscle mass, soleus muscle (Sol), vs control [2, 11]: 5.2% | increase in muscle mass, tibialis anterior muscle (TA), vs control [2, 11]: 16.0% | expression of Myh2 (MHCIIa) ([2]; 21 days after muscle damage): tended to greatly increase | relative mRNA expression levels of muscle fiber types Myh7, Myh2, Myh4, Myh1 ([2]; 21 days after muscle damage): no significant difference | blood glucose ([2]; day 21 after induction of muscle damage, vs control): blood glucose-lowering effect was confirmed | increase in grip strength vs control ([2]; day 21 after muscle damage, grip strength test): approximately 6.8% | change in body weight ([2]; inotodiol 300 μg/kg oral, 21 days after CTX): no change in body weight was observed | increase in muscle fiber cross-sectional area (CSA) of TA muscle vs control ([2]; laminin staining): 89.4% | muscle regeneration (H&E staining of TA muscle) ([2]; vs control): significant muscle regeneration effect | area of the muscle tissue in which fibrosis progressed [3]: reduced | muscle fibrosis in muscle tissue [3]: fibrosis was ameliorated | exercise capacity (exercise duration and movement distance, treadmill) [4]: recovered exercise capacity to the level of the normal control | muscle strength (grip test) [4]: muscle strength was improved | expression level of mitochondrial proteins (ATPSA, MTCO1, NDUF88) [5]: increased in proportion to the concentration of inotodiol | formation of multinucleated myotubes ([6]; C2C12, inotodiol 0.1, 0.5, 1.0, 10 μM, immunostaining on day 2 of differentiation): increased in a concentration-dependent manner | expression level of MHC (differentiation marker) ([6]; C2C12, inotodiol at different concentrations, immunoblot, vs DMSO-treated control): increased in a concentration-dependent manner | expression of genes involved in muscle growth ([7]; CTX muscle damage): effect of enhancing the expression of genes involved in muscle growth was confirmed | relative mRNA expression levels of genes involved in the cell cycle ([7]; CTX muscle damage): increased | expression level of BrdU in muscle tissues [7, 12]: increased | expression levels of Pax7 and Ki67 and expression ratio of Ki67 to Pax7 [7, 12]: increased | mRNA expression for PGC-1α [8]: significantly increased compared to the control | hindlimb muscle mass [9, 13]: increased | muscle strength (grip test) [9, 13]: also increased | weight of fat relative to weight gain ([9]; long-term administration): increased relatively less | weight-to-muscle ratio ([9]; long-term administration): higher than that of the non-administered group | expression levels of PGC-1α and mitochondrial-related genes in muscle ([9]; long-term administration, vs control): increased compared to the control | luciferase activity for PGC-1α ([10]; inotodiol 0.1, 0.5, 1.0 μM, 24 h, relative to DMSO): increased in an inotodiol concentration-dependent manner | luciferase activity for PGC-1α compared with positive control ([10]; vs 0.5 mM AICAR positive control): higher than that of 0.5 mM AICAR
